# Patent US20240197869A1, “HYPERACTIVATORS OF MAMMALIAN DENDRITIC CELLS” (Corner Therapeutics, Inc., priority 2021, published 2024)
# What was measured:
# [1] = test system: human monocyte-derived dendritic cells (moDCs); experiment: DAMP screen: viability of human moDCs (CellTiter-Glo)
# Description: Danger-Associated Molecular Pattern (DAMP) Screen. After 6 days of differentiation into moDC, cells were collected and counted. Cells were plated at 100,000 cells/well in R10 media in 96-well flat bottom tissue culture-treated plates. LPS, serotype O55:B5 (Enzo Life Sciences) was added to a final concentration of 1 μg/mL in each well. […] Cells were incubated at 37° C., 5% CO2 for two days. Cell cultures were then used for endpoint analyses.
# Endpoint Analyses. After culturing moDCs with PAMPs and DAMPs for two days, supernatant and cell samples were collected for analysis.
# (§2) Quantification of Cell Viability. Cell viability was assessed by quantifying the presence of ATP as an indicator of metabolically active cells using the CellTiter-Glo Luminescent Cell Viability Assay (Promega). Metabolic activity was assessed following manufacturer's instructions. The CellTiter-Glo reagent was mixed with the cell pellets and remaining supernatant, and transferred to a white, opaque 96-well plate. Luminescence was measured on all wavelengths on a Spectramax iD3 plate reader (Molecular Devices) using an integration time of 500 ms. Percent viability was calculated relative to the control condition of moDCs treated with LPS.
# [2] = test system: human monocyte-derived dendritic cells (moDCs); experiment: DAMP screen: IL-1β secretion by LPS-activated human moDCs (ELISA); format: cell-based
# Description: Danger-Associated Molecular Pattern (DAMP) Screen.
# (§1) Quantification of IL-1beta Secretion. IL-1beta secretion was assessed using the ELISA MAX Deluxe Set Human IL-1beta kit (Biolegend). ELISAs were performed according to manufacturer's instructions with the following modifications: i) total sample volume for incubation was reduced from […] the top standard was prepared at […], with two-fold dilutions to […]; and iii) sample incubation was completed overnight at 4 C on an orbital shaker. […] To determine IL-1beta concentration in supernatants, sample IL-1beta concentrations were interpolated using a standard curve via 4PL analysis on GraphPad Prism 9 (GraphPad Software). The interpolated results of samples were then adjusted for any dilutions made to the supernatant.
# [3] = test system: human monocyte-derived dendritic cells (moDCs); experiment: Lipid titration: viability of human moDCs (CellTiter-Glo)
# Description: Lipid Titration. After 6 days of differentiation into moDC, cells were collected and counted. Cells were replated at 100,000 cells/well in R10 media in 96-well flat bottom tissue culture-treated plates. LPS, serotype 055:B5 (Enzo Life Sciences) was added to a final concentration of 1 μg/mL in each well. After the addition of LPS, lipids were prepared. […] After two days of culture, cell cultures were used for endpoint analyses.
# Endpoint Analyses. After culturing moDCs with PAMPs and DAMPs for two days, supernatant and cell samples were collected for analysis. Cells in culture were pelleted by centrifugation at 400×g for 5 min.
# as §2
# Statistical Analyses. […] For each tested condition, cells from each donor were plated to be tested in triplicate.
# human naïve CD4+ T cells = experiment: Mixed lymphocyte reaction: polarization of naïve CD4 T cells (flow cytometry); format: cell-based
# Description: Mixed lymphocyte reaction. Human monocytes were isolated from leukopheresis products using Miltenyi StraightFrom LeukoPak CD14 microbeads as directed by manufacturer. To isolate naïve CD4 T cells, whole blood was diluted with an equal volume of PBS. Diluted blood was layered on top of Ficoll-Paque PLUS solution and spun at 1000 rcf for 20 minutes at room temperature with no brakes. Buffy coat layer was collected, washed, and counted. Miltenyi human naïve CD4 T cell microbead isolation kits were used to isolate cells of interest from the PBMC according to manufacturer's instructions. Collected cells were cryogenically stored in 90% FBS and 10% DMSO.
# Monocytes were differentiated into moDC. moDC were counted and plated in U-bottom plates at 2×10^4 cells/well and treated with hyperactivating stimuli or control conditions. After one day of culture, 1×10^5 cells/well naïve CD4 T cells from a different (allogeneic) human donor were thawed and added to the cultures with 100 ng/mL IL-2. Cells were cocultured for 5 days with an IL-2 feed on the third day of coculture. After 5 days, cells were reactivated for four hours using Leukocyte Activation Cocktail with BD GolgiPlug (BD Biosciences). Cells were stained to determine the resulting polarization of activated T cells via flow cytometry. Intracellular staining targets required the use of BD Biosciences Transcription Factor Buffer set to fix and permeabilize cells prior to the intracellular staining step.
# Ten moDC donor samples were tested in MLR assay. Staining results were analyzed using FlowJo software, and consistent gating strategies were applied to all samples. Frequency of activated cells was graphed as a percentage of CD4 T cells in each sample. Paired t-tests were used to determine statistical significance.
# [4] = test system: human monocyte-derived dendritic cells (moDCs); experiment: PAMP screen: IL-1β secretion by human moDCs with PRR agonist and 22:0 Lyso PC; format: cell-based; details: No PAMP, 20 μM 22:0 Lyso PC alone, human moDCs
# Description: Pathogen-Associated Molecular Pattern (PAMP) Screen. Innate immune signaling pathway agonists were purchased from Invivogen. Lyophilized stocks were reconstituted and stored according to manufacturer's instructions and at recommended concentrations. […] Innate immune signaling agonists were diluted in R10 media to the manufacturer's recommended working concentration and then added onto cells. 22:0 Lyso PC was then reconstituted from a lyophilized stock in R10 and then further diluted. The lipid was added onto cells at a final concentration of 20 μM. Cells were incubated for 2 days, then cultures were collected for endpoint analyses.
# as §1
# [5] = Particle size by Dynamic Light Scattering (DLS); format: physicochemical; details: particles of 22:0 Lyso PC and KP407 by solvent evaporation, after 0.45 um filtration
# Source text: Particle size was quantified by Dynamic Light Scattering (DLS).
# [6] = test system: B16-F10 mouse melanoma tumor; experiment: Therapeutic whole tumor lysate vaccine in B16F10 tumor-bearing mice; format: in vivo, mouse (C57BL/6J)
# Description: Ex vivo whole tumor lysate preparation. Syngeneic whole tumor lysates (WTL) were prepared from tumors explants of unimmunized tumor-bearing mice. Briefly, tumors from unimmunized mice bearing a tumor 10-12 mm of size were mechanically disaggregated using gentle MACS dissociator (Miltenyi Biotec) and enzymatically digested using the tumor Dissociation Kit (Miltenyi Biotec) following the manufacturer's protocol. After digestion, tumor cell suspensions were washed with PBS and passed through 70 um and then 30 um filters. Single cell suspension was depleted of CD45+ cells using anti-CD45 TILs microbeads (Miltenyi Biotec). Tumor cells were then counted and resuspended at 1×10^7 cells/ml then lysed by 3-4 cycles of freeze-thawing. The lysed cells were further disrupted by repeatedly passing the material through an 18G, then 21G, and finally 25G needles. Lysate was filtered again through 70 um and 30 um cell strainers and stored in aliquots at −80° C. until use. WTL were used for immunotherapy at a concentration equivalent to 5.75E5 tumor cells per mouse.
# Immunotherapeutic immunization and tumor challenges. For immunizations in the context of an immunotherapeutic approach, C57BL/6J were injected on the left flank with 5×10^4 B16F10 cells. […] Mice received two boost injections at 7-day intervals.
# Quantification and statistical analysis. In in vivo studies, n refers to the number of animals per condition from one or two independent experiments. Statistical differences were calculated by using unpaired two-tailed Student's t test, or one-way ANOVA with Tukey post-test. Dependent samples were analyzed with paired t tests. Statistical significance for experiments with more than two groups was tested with two-way ANOVA with Tukey multiple comparison test correction. All experiments were analyzed using Prism 7 (GraphPad Software). Graphical data was shown as mean values with error bars indicating the SD or SEM. P values of <0.05 (*), <0.01 (**) or <0.001(***);%0.0001 (****) indicated significant differences between groups.
# [7] = 82.5 μM lipid + LPS, selected lipids, Table 1-3 (repeats Table 1-1)
# [8] = moDC treated with R848 + 22:0 LPC
# [9] = WTL 80 ug + R848 100 ug + 65 ug lipid in […]% KP407, 2 boosts every 7 days
compound,measurement,setting,value
"CCCCCCCCCCCCCCCCCCCCCC(=O)OC[C@@H](O)COP(=O)([O-])OCC[N+](C)(C)C [22:0 LYSO PC, 1-behenoyl-2-hydroxy-sn-glycero-3-phosphocholine]",Relative Viability (%) ± SD,"[1]; 41.3 μM lipid + LPS 1 μg/mL, 2 days, relative to LPS-treated moDCs, Table 1-2",47.6%
same,Relative Viability (%) ± SD,"[1]; 82.5 μM lipid + LPS 1 μg/mL, 2 days, relative to LPS-treated moDCs, Table 1-1",14.6%
same,Relative Viability (%) ± SD,[1]; [7],14.6%
same,IL-1β secretion,"[2]; 41.3 μM lipid + LPS 1 μg/mL, 2 days, Table 1-2",1904.2 pg/mL
same,IL-1β secretion,[2]; [7],2130.9 pg/mL
same,moDC viability (in words),[3]; 10.3 μM lipid + LPS,retained high viability
same,Relative Viability (%) ± SD,"[3]; 10.3 μM lipid + LPS 1 μg/mL, 2 days, relative to LPS-treated moDCs, Table 1-5",89.1%
same,moDC viability (in words),[3]; 20.6 μM lipid + LPS,reduced cell viability somewhat
same,"Th2 polarization (Gata3, IL-4) (in words)",human naïve CD4+ T cells; [8],minimal Th2 polarization occurred
same,"Th17 cells (RORg, IL-17) (in words)",human naïve CD4+ T cells; [8],not detected
same,frequency of polyfunctional Th1 cells (IFN-gamma and TNF-alpha) (in words),human naïve CD4+ T cells; moDC treated with R848 + 22:0 LPC vs R848 alone,increased in frequency
same,frequency of Th1 cells (in words),"human naïve CD4+ T cells; moDC treated with R848 + 22:0 LPC vs R848 alone, 5 days coculture",increased the frequency of Th1 cells
same,IL-1β secretion,"[4]; Table 1-7, 10 donors",1.1 pg/mL
same,IL-1β secretion,[4]; Table 1-8,1.0 pg/mL
same,particle diameter,[5],approximately 1500 nm
same,survival of tumor-bearing mice (in words),[6]; [9],survived longer
same,tumor growth kinetics (in words),[6]; [9],delayed tumor growth kinetics
same,benefit of vaccination (in words),[6]; tumor lysate + R848 + lipid in PBS,No significant benefit
